Test results published in patent publication US20260355212A1 (priority 2022, published 2026).
Like-named read-outs stand apart in the source and are kept apart here.

What was measured:
SARS-CoV-1 Mpro = SARS-CoV-1 Mpro (Severe acute respiratory syndrome coronavirus, UniProt P0C6X7); assay: biochemical
HCoV-NL63 Mpro = HCoV-NL63 Mpro (Human coronavirus NL63, UniProt P0C6X5); assay: HCoV-NL63 Mpro enzymatic inhibition assay (fluorescence); type: biochemical
Procedure, shortened: (§1)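 Fluorescence at 340/490 nm after 60 min substrate cleavage at 30 °C is the read-out. Purified E. coli-expressed protease had been pre-incubated 30 min at room temperature with 10-dose, 3-fold compound series in duplicate.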

HCoV-OC43 Mpro = HCoV-OC43 Mpro (Human coronavirus OC43, UniProt P0C6X6); assay: HCoV-OC43 Mpro enzymatic inhibition assay (fluorescence); type: biochemical
HCoV-OC43 Mpro, sequence (P0C6X6 3247-3549 limits assumed): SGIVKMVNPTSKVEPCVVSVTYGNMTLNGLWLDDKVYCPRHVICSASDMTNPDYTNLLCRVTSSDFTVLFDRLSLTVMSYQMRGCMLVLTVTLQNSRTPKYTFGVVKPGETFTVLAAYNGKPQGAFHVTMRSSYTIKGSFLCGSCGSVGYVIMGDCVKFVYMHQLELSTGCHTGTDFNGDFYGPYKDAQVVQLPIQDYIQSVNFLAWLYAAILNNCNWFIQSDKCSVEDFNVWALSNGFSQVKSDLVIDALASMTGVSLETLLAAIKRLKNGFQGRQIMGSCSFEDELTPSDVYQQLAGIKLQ
Procedure, shortened: as §1

HCoV-229E Mpro = HCoV-229E Mpro (Human coronavirus 229E, UniProt P0C6X1); assay: HCoV-229E Mpro enzymatic inhibition assay (fluorescence); type: biochemical
HCoV-229E Mpro, sequence (P0C6X1 2966-3267 limits assumed): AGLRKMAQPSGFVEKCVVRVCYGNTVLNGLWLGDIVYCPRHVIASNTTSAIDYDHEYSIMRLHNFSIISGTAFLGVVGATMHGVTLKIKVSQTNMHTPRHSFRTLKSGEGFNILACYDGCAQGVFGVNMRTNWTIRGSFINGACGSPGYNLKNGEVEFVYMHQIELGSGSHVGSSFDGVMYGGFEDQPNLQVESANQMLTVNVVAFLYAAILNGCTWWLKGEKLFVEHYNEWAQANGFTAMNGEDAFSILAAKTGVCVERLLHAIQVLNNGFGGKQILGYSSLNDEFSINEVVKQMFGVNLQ

MERS Mpro = MERS Mpro (Middle East respiratory syndrome-related coronavirus, UniProt K9N7C7); assay: biochemical; design: species or system MERS-CoV
MERS Mpro, sequence (K9N7C7 3248-3553 limits assumed): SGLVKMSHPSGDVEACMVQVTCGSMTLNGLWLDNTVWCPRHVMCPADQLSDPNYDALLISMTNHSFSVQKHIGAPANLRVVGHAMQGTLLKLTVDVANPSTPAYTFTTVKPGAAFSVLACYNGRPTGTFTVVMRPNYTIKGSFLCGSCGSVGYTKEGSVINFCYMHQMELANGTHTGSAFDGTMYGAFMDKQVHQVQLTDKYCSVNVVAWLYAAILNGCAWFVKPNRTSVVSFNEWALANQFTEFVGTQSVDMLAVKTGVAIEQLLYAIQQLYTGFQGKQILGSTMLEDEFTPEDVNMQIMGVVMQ

SARS-CoV-2 Mpro = SARS-CoV-2 Mpro (Severe acute respiratory syndrome coronavirus 2, UniProt P0DTD1); assay: SARS-CoV-2 Mpro enzymatic inhibition assay (fluorescence); type: biochemical
Procedure, shortened: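 A fluorescence readout (340 nm excitation, 490 nm emission) was taken after the substrate reaction ran 60 min at 30° C. Before substrate addition, E. coli-expressed protease and compound (3-fold dilutions, 10 doses, duplicates) sat together 30 min at room temperature. Percent inhibition was fitted by variable-slope nonlinear regression to give IC50.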

HCoV-HKU1 Mpro = HCoV-HKU1 Mpro (Human coronavirus HKU1, UniProt P0C6X2); assay: HCoV-HKU1 Mpro enzymatic inhibition assay (fluorescence); type: biochemical
HCoV-HKU1 Mpro, sequence (P0C6X2 3335-3637 limits assumed): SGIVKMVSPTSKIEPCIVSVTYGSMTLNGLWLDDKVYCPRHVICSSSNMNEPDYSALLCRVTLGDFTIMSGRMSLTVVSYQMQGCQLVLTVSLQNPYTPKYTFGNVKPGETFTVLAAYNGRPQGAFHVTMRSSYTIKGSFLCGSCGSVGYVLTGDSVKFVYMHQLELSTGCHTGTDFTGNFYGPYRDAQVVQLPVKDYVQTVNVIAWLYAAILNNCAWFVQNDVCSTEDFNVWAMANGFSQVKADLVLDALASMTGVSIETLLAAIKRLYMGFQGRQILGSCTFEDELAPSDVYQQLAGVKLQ
Procedure, shortened: as §1

[1] = mean, 25 nM protein, 25 μM substrate, 30 min pre-incubation, 60 min at 30° C., read-out: Mpro_SARS-CoV-2 mean IC50

HCoV-NL63 Mpro, sequence (P0C6X5 2940-3242 limits assumed): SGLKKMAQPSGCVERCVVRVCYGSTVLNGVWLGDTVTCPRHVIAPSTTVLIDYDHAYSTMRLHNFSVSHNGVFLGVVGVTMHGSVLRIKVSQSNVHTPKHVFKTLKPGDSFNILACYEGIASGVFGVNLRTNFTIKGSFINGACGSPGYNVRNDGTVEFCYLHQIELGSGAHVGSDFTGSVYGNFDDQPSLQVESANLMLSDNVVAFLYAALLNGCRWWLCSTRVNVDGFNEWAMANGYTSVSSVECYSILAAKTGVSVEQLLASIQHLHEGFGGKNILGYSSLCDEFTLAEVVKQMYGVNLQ

Row | Compound | IC50 (SARS-CoV-1 Mpro) [nM] | IC50 (HCoV-NL63 Mpro) [nM] | IC50 (HCoV-OC43 Mpro) [nM] | IC50 (HCoV-229E Mpro) [nM] | IC50 (MERS Mpro) [nM] | IC50 (SARS-CoV-2 Mpro; [1]) [nM] | IC50 (HCoV-HKU1 Mpro) [nM] | IC50 (SARS-CoV-2 Mpro) [nM]
1 | CC1(C)[C@@H]2[C@@H](C(=O)N[C@H](C=O)C[C@@H]3CCNC3=O)N(C(=O)c3cc4ccccc4[nH]3)C[C@@H]21 [Compound 60, (1R,2S,5S)-3-(1H-Indole-2-carbonyl)-6,6-dimethyl-N—((S)-1-oxo-3-((S)-2-oxopyrrolidin-3-yl)propan-2-yl)-3-azabicyclo[3.1.0]hexane-2-carboxamide] | 52 | 54 | 94.9 | 53.7 | 273 | 26 | 28.9 | –
2 | O=C[C@H](C[C@@H]1CCNC1=O)NC(=O)[C@@H]1C[C@@H](C2CCCCC2)CN1C(=O)c1cc2ccccc2[nH]1 [Compound 61, (2S,4S)-4-Cyclohexyl-1-(1H-indole-2-carbonyl)-N—((S)-1-oxo-3-((S)-2-oxopyrrolidin-3-yl)propan-2-yl)pyrrolidine-2-carboxamide] | 147 | 200 | 38.7 | 43.2 | 438 | 26 | 12.6 | –
3 | CC1(C)C[C@@H](C(=O)N[C@H](C=O)C[C@@H]2CCNC2=O)N(C(=O)c2cc3cccc(F)c3[nH]2)C1 [Compound 62, (S)-1-(7-Fluoro-1H-indole-2-carbonyl)-4,4-dimethyl-N—((S)-1-oxo-3-((S)-2-oxopyrrolidin-3-yl)propan-2-yl)pyrrolidine-2-carboxamide] | 77.1 | 90.7 | 145 | 64.4 | 535 | – | 55.7 | 26.3
4 | CC1(C)[C@@H]2[C@@H](C(=O)N[C@H](C=O)C[C@@H]3CCNC3=O)N(C(=O)CC3CCCCC3(F)F)C[C@@H]21 (stereo partly drawn) [Compound 64, (1R,2S,5S)-3-(2-(2,2-Difluorocyclohexyl)acetyl)-6,6-dimethyl-N—((S)-1-oxo-3-((S)-2-oxopyrrolidin-3-yl)propan-2-yl)-3-azabicyclo[3.1.0]hexane-2-carboxamide] | 46.6 | 105 | 65.8 | 53.2 | 224 | – | 46.5 | 27
5 | COc1cccc2[nH]c(C(=O)N3C[C@H]4[C@@H]([C@H]3C(=O)N[C@H](C=O)C[C@@H]3CCNC3=O)C4(C)C)cc12 [Compound 65, (1R,2S,5S)-3-(4-Methoxy-1H-indole-2-carbonyl)-6,6-dimethyl-N—((S)-1-oxo-3-((S)-2-oxopyrrolidin-3-yl)propan-2-yl)-3-azabicyclo[3.1.0]hexane-2-carboxamide] | 33.1 | 24.1 | 25.2 | 38 | 320 | 27 | 21.1 | –
6 | C[C@@H](C(=O)N1C[C@H]2[C@@H]([C@H]1C(=O)N[C@H](C=O)C[C@@H]1CCNC1=O)C2(C)C)C1CCCCC1 [Compound 67, (1R,2S,5S)-3-((R)-2-Cyclohexylpropanoyl)-6,6-dimethyl-N—((S)-1-oxo-3-((S)-2-oxopyrrolidin-3-yl)propan-2-yl)-3-azabicyclo[3.1.0]hexane-2-carboxamide] | 44.1 | 51.8 | 33.2 | 27.3 | 170 | – | 10.8 | 27.8
7 | Cc1cc(Cl)cc2cc(C(=O)N3C[C@H]4[C@@H]([C@H]3C(=O)N[C@H](C=O)C[C@@H]3CCNC3=O)C4(C)C)[nH]c12 [Compound 69, (1R,2S,5S)-3-(5-Chloro-7-methyl-1H-indole-2-carbonyl)-6,6-dimethyl-N—((S)-1-oxo-3-((S)-2-oxopyrrolidin-3-yl)propan-2-yl)-3-azabicyclo[3.1.0]hexane-2-carboxamide] | 48.8 | 80.7 | 79.8 | 50.5 | 476 | – | 32.6 | 29.2
8 | O=C[C@H](C[C@@H]1CCNC1=O)NC(=O)[C@@H]1C[C@@H](C2CCCCC2)CN1C(=O)c1cc2cccc(F)c2[nH]1 [Compound 71, (2S,4S)-4-cyclohexyl-1-(7-fluoro-1H-indole-2-carbonyl)-N—((S)-1-oxo-3-((S)-2-oxopyrrolidin-3-yl)propan-2-yl)pyrrolidine-2-carboxamide] | 95.6 | 414 | 133 | 53.5 | 1420 | – | 34.9 | 30.4
9 | Cc1ccc2cc(C(=O)N3C[C@H]4[C@@H]([C@H]3C(=O)N[C@H](C=O)C[C@@H]3CCNC3=O)C4(C)C)[nH]c2c1 [Compound 72, (1R,2S,5S)-6,6-Dimethyl-3-(6-methyl-1H-indole-2-carbonyl)-N—((S)-1-oxo-3-((S)-2-oxopyrrolidin-3-yl)propan-2-yl)-3-azabicyclo[3.1.0]hexane-2-carboxamide] | 58.9 | 21.7 | 49.4 | 30.1 | 346 | – | 20.8 | 31.3
10 | CC(C)(C)CCC(=O)N1C[C@H]2[C@@H]([C@H]1C(=O)N[C@H](C=O)C[C@@H]1CCNC1=O)C2(C)C [Compound 73, (1R,2S,5S)-3-(4,4-Dimethylpentanoyl)-6,6-dimethyl-N—((S)-1-oxo-3-((S)-2-oxopyrrolidin-3-yl)propan-2-yl)-3-azabicyclo[3.1.0]hexane-2-carboxamide] | 63.1 | 182 | 71.4 | 62.6 | 326 | 31.8 | 57.5 | –
11 | CC1(C)[C@@H]2[C@@H](C(=O)N[C@H](C=O)C[C@@H]3CCNC3=O)N(C(=O)c3cc4ccc(C#N)cc4[nH]3)C[C@@H]21 [Compound 74, (1R,2S,5S)-3-(6-Cyano-1H-indole-2-carbonyl)-6,6-dimethyl-N—((S)-1-oxo-3-((S)-2-oxopyrrolidin-3-yl)propan-2-yl)-3-azabicyclo[3.1.0]hexane-2-carboxamide] | 61.4 | 86.8 | 86.4 | 55.3 | 479 | – | 40.9 | 32
12 | N#Cc1cccc2cc(C(=O)N3C[C@H](C4CCCCC4)C[C@H]3C(=O)N[C@H](C=O)C[C@@H]3CCNC3=O)[nH]c12 [Compound 75, (2S,4S)-1-(7-cyano-1H-indole-2-carbonyl)-4-cyclohexyl-N—((S)-1-oxo-3-((S)-2-oxopyrrolidin-3-yl)propan-2-yl)pyrrolidine-2-carboxamide] | 66 | 754 | 57 | 64 | 604 | – | 16.6 | 32.3
13 | N#Cc1cccc2[nH]c(C(=O)N3CC4(CC4)C[C@H]3C(=O)N[C@H](C=O)C[C@@H]3CCNC3=O)cc12 [Compound 76, (S)-5-(4-Cyano-1H-indole-2-carbonyl)-N—((S)-1-oxo-3-((S)-2-oxopyrrolidin-3-yl)propan-2-yl)-5-azaspiro[2.4]heptane-6-carboxamide] | 60.6 | 33 | 30.1 | 26.9 | 200 | – | 13.1 | 32.7
14 | Cc1ccc(F)c2[nH]c(C(=O)N3C[C@H]4[C@@H]([C@H]3C(=O)N[C@H](C=O)C[C@@H]3CCNC3=O)C4(C)C)cc12 [Compound 77, (1R,2S,5S)-3-(7-Fluoro-4-methyl-1H-indole-2-carbonyl)-6,6-dimethyl-N—((S)-1-oxo-3-((S)-2-oxopyrrolidin-3-yl)propan-2-yl)-3-azabicyclo[3.1.0]hexane-2-carboxamide] | 27.6 | 99.2 | 83.8 | 41.9 | 401 | – | 45.3 | 33.1
15 | CC1(C)[C@@H]2[C@@H](C(=O)N[C@H](C=O)C[C@@H]3CCNC3=O)N(C(=O)c3cc4occc4[nH]3)C[C@@H]21 [Compound 78, (1R,2S,5S)-3-(4H-Furo[3,2-b]pyrrole-5-carbonyl)-6,6-dimethyl-N—((S)-1-oxo-3-((S)-2-oxopyrrolidin-3-yl)propan-2-yl)-3-azabicyclo[3.1.0]hexane-2-carboxamide] | 86.8 | 81.3 | 66.9 | 37.4 | 479 | – | 51.1 | 33.3
16 | CC1(C)[C@@H]2[C@@H](C(=O)N[C@H](C=O)C[C@@H]3CCCNC3=O)N(C(=O)CC3CCCCC3)C[C@@H]21 [Compound 79, (1R,2S,5S)-3-(2-Cyclohexylacetyl)-6,6-dimethyl-N—((S)-1-oxo-3-((S)-2-oxopiperidin-3-yl)propan-2-yl)-3-azabicyclo[3.1.0]hexane-2-carboxamide] | 25.9 | 57.8 | 38.6 | 50.8 | 177 | – | 27.1 | 34.5
